Peptide text beside a SMILES is read from it.
molecular target: T1, TGR26 (Rattus norvegicus, UniProt Q56UD9); assay: Receptor binding using [125I-Tyr10]-hGPR8L (1-23) and membrane fraction of TGR26 expressing CHO cells; settings: membrane fraction of TGR26 expressing CHO cells, [125I-Tyr10]-hGPR8L (1-23), method of Example 8
T1 construct: expressed in transfected cells; whole cells in A1, membrane fraction in A2 and A3
T1 sequence (Q56UD9 1-329): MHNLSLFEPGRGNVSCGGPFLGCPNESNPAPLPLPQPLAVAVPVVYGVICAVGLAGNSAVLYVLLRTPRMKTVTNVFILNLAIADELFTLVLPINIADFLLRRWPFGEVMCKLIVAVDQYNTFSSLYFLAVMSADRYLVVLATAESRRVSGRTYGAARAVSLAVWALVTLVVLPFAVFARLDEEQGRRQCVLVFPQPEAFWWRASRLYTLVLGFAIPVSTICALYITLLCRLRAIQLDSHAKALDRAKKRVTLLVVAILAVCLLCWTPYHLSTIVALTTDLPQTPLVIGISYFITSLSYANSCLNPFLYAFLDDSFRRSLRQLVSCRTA
Procedure: Using [^125I-Tyr^10]-hGPR8L (1-23) prepared by the method described in Reference Example 15 and a cell membrane fraction prepared from TGR26 expressing cells as described in Example 6, a receptor binding assay was carried out as follows.
Cell membrane fraction prepared from TGR26 expressing cells was diluted to various concentration with assay buffer (25 mM Tris-HCl, 5 mM EDTA, 0.05% CHAPS (3-[(3-Cholamidopropyl) Dimethyl-Ammonio]-1-Propanesulfonate), 0.1% BSA, 0.5 mM PMSF, 1 μg/ml Pepstatin, 20 μg/ml Leupeptin, 4 μg/ml E-64, pH 7.4), and 200 μl each of the diluent was dispensed into polypropilene test tube (Falcon 2053). In order to determine an amount of maximum binding, 2 μl of DMSO and 2 μl of 7 nM [^125I-Tyr^10]-hGPR8L (1-23) were added to the membrane fraction solution. Further, in order to determine a non-specific binding, 2 μl of 100 μM hGPR8L (1-23)/DMSO solution and 2 μl of 7 nM [^125I-Tyr^10]-hGPR8L (1-23) were added to the membrane fraction solution. The reaction was done at 25° C. for 75 minutes, and the reaction mixture was filtered by suction filtration using Whatman glassfilter (GF-F) treated with polyethyleneimine. In addition, the filter was washed twice with 1.5 ml of washing buffer (25 mM Tris-HCl, 5 mM EDTA, 0.05% CHAPS, 0.1% BSA, pH 7.4). After filtration, a radioactivity remaining on the filter was counted using γ-counter, and an amount of specific binding was estimated by subtracting an amount of non-specific binding from an amount of maximum binding.
Where the concentration of membrane fraction was set to 3 μg/ml, an inhibition for the specific binding of [125I-Tyr^10]-hGPR8L (1-23) to the membrane fraction of TGR26 expressing cells by hGPR8L (1-23) and hGPR8L (1-30) was investigated.
A receptor binding activity of human- and porcine-homologue derivatives of GPR8 ligand peptide obtained in the reference examples was measured using a membrane fraction of TGR26 expressing CHO cells and [^125I-Tyr^10]-hGPR8L (1-23) by the method described in Example 8. The receptor binding activity is represented by concentration of 50% inhibition for binding (IC50 value).

Row | Structure (SMILES) | IC50 [nM]
1 | CC(C)[C@H](NC(=O)[C@H](Cc1c[nH]cn1)NC(=O)[C@H](CCCCN)NC(=O)[C@H](Cc1ccc(O)cc1)NC(=O)[C@@H](N)Cc1c[nH]c2ccccc12)C(=O)N[C@@H](C)C(=O)N[C@@H](CO)C(=O)N1CCC[C@H]1C(=O)N[C@@H](CCCNC(=N)N)C(=O)N[C@@H](Cc1ccc(O)cc1)C(=O)N[C@@H](Cc1c[nH]cn1)C(=O)N[C@H](C(=O)N[C@H](C(=O)NCC(=O)N[C@@H](CCCNC(=N)N)C(=O)N[C@@H](C)C(=O)N[C@@H](C)C(=O)NCC(=O)O)C(C)C)[C@@H](C)O [hGPR8L (1-18), Trp-Tyr-Lys-His-Val-Ala-Ser -Pro-Arg-Tyr-His-Thr-Val-Gly-Arg-Ala-Ala-Gly] (H-WYKHVASPRYHTVGRAAG-OH; N-terminus and C-terminus assumed) | 760
2 | CSCC[C@H](NC(=O)[C@H](CC(C)C)NC(=O)[C@H](CC(C)C)NC(=O)CNC(=O)[C@H](C)NC(=O)[C@H](C)NC(=O)[C@H](CCCNC(=N)N)NC(=O)CNC(=O)[C@@H](NC(=O)[C@@H](NC(=O)[C@H](Cc1c[nH]cn1)NC(=O)[C@H](Cc1ccc(O)cc1)NC(=O)[C@H](CCCNC(=N)N)NC(=O)[C@@H]1CCCN1C(=O)[C@H](CO)NC(=O)[C@H](C)NC(=O)[C@@H](NC(=O)[C@H](Cc1c[nH]cn1)NC(=O)[C@H](CCCCN)NC(=O)[C@@H](N)Cc1ccc(O)cc1)C(C)C)[C@@H](C)O)C(C)C)C(=O)NCC(=O)N[C@@H](CC(C)C)C(=O)O [hGPR8L (2-23), Tyr-Lys-His-Val-Ala-Ser-Pro -Arg-Tyr-His-Thr-Val-Gly-Arg-Ala-Ala-Gly-Leu-Leu-Met-Gly-Leu] (H-YKHVASPRYHTVGRAAGLLMGL-OH; C-terminus assumed) | 240
3 | CSCC[C@H](NC(=O)[C@H](CC(C)C)NC(=O)[C@H](CC(C)C)NC(=O)CNC(=O)[C@H](C)NC(=O)[C@H](C)NC(=O)[C@H](CCCNC(=N)N)NC(=O)CNC(=O)[C@@H](NC(=O)[C@@H](NC(=O)[C@H](Cc1c[nH]cn1)NC(=O)[C@H](Cc1ccc(O)cc1)NC(=O)[C@H](CCCNC(=N)N)NC(=O)[C@@H]1CCCN1C(=O)[C@H](CO)NC(=O)[C@H](C)NC(=O)[C@@H](NC(=O)[C@H](Cc1c[nH]cn1)NC(=O)[C@H](CCCCN)NC(=O)[C@H](Cc1ccc(O)cc1)NC(C)=O)C(C)C)[C@@H](C)O)C(C)C)C(=O)NCC(=O)N[C@@H](CC(C)C)C(=O)O [Ac-hGPR8L (2-23), Ac-Tyr-Lys-His -Val-Ala-Ser-Pro-Arg-Tyr-His-Thr-Val-Gly-Arg-Ala-Ala-Gly-Leu-Leu-Met-Gly-Leu] (Ac-YKHVASPRYHTVGRAAGLLMGL-OH; C-terminus assumed) | 570
4 | CSCC[C@H](NC(=O)[C@H](CC(C)C)NC(=O)[C@H](CC(C)C)NC(=O)CNC(=O)[C@H](C)NC(=O)[C@H](C)NC(=O)[C@H](CCCNC(=N)N)NC(=O)CNC(=O)[C@@H](NC(=O)[C@@H](NC(=O)[C@H](Cc1c[nH]cn1)NC(=O)[C@H](Cc1ccc(O)cc1)NC(=O)[C@H](CCCNC(=N)N)NC(=O)[C@@H]1CCCN1C(=O)[C@H](CO)NC(=O)[C@H](C)NC(=O)[C@@H](NC(=O)[C@H](Cc1c[nH]cn1)NC(=O)[C@H](CCCCN)NC(=O)[C@H](Cc1ccc(O)cc1)NC(=O)[C@H](Cc1c[nH]c2ccccc12)NC(=O)OCC1c2ccccc2-c2ccccc21)C(C)C)[C@@H](C)O)C(C)C)C(=O)NCC(=O)N[C@@H](CC(C)C)C(=O)O [Fmoc-hGPR8L (1-23)] | 0.23

More lines, now with the values ahead:

Row | IC50 [nM] | Structure (SMILES)
5 | 2000 | CSCC[C@H](NC(=O)[C@H](CC(C)C)NC(=O)[C@H](CC(C)C)NC(=O)CNC(=O)[C@H](C)NC(=O)[C@H](C)NC(=O)[C@H](CCCNC(=N)N)NC(=O)CNC(=O)[C@@H](NC(=O)[C@@H](NC(=O)[C@H](Cc1c[nH]cn1)NC(=O)[C@H](Cc1ccc(O)cc1)NC(=O)[C@H](CCCNC(=N)N)NC(=O)[C@@H]1CCCN1C(=O)[C@H](CO)NC(=O)[C@H](C)NC(=O)[C@@H](NC(=O)[C@@H](N)Cc1c[nH]cn1)C(C)C)[C@@H](C)O)C(C)C)C(=O)NCC(=O)N[C@@H](CC(C)C)C(=O)O [hGPR8L (4-23), His-Val-Ala-Ser-Pro-Arg-Tyr -His-Thr-Val-Gly-Arg-Ala-Ala-Gly-Leu-Leu-Met-Gly-Leu] (H-HVASPRYHTVGRAAGLLMGL-OH; C-terminus assumed)
6 | 2500 | CSCC[C@H](NC(=O)[C@H](CC(C)C)NC(=O)[C@H](CC(C)C)NC(=O)CNC(=O)[C@H](C)NC(=O)[C@H](C)NC(=O)[C@H](CCCNC(=N)N)NC(=O)CNC(=O)[C@@H](NC(=O)[C@@H](NC(=O)[C@H](Cc1c[nH]cn1)NC(=O)[C@H](Cc1ccc(O)cc1)NC(=O)[C@@H](N)CCCNC(=N)N)[C@@H](C)O)C(C)C)C(=O)NCC(=O)N[C@@H](CC(C)C)C(=O)O [hGPRBL (9-23), Arg-Tyr-His-Thr-Val-Gly-Arg -Ala-Ala-Gly-Leu-Leu-Met-Gly-Leu] (H-RYHTVGRAAGLLMGL-OH; C-terminus assumed)
7 | 0.17 | CC(C)C[C@H](NC(=O)[C@H](CC(C)C)NC(=O)CNC(=O)[C@H](C)NC(=O)[C@H](C)NC(=O)[C@H](CCCNC(=N)N)NC(=O)CNC(=O)[C@@H](NC(=O)[C@@H](NC(=O)[C@H](Cc1c[nH]cn1)NC(=O)[C@H](Cc1ccc(O)cc1)NC(=O)[C@H](CCCNC(=N)N)NC(=O)[C@@H]1CCCN1C(=O)[C@H](CO)NC(=O)[C@H](C)NC(=O)[C@@H](NC(=O)[C@H](Cc1c[nH]cn1)NC(=O)[C@H](CCCCN)NC(=O)[C@H](Cc1ccc(O)cc1)NC(=O)[C@@H](N)Cc1c[nH]c2ccccc12)C(C)C)[C@@H](C)O)C(C)C)C(=O)O [hGPR8L (1-20), Trp-Tyr-Lys-His-Val-Ala-Ser -Pro-Arg-Tyr-His-Thr-Val-Gly-Arg-Ala-Ala-Gly-Leu-Leu] (H-WYKHVASPRYHTVGRAAGLL-OH; N-terminus and C-terminus assumed)
